Activity calls are given as the source filed them. The rule behind the calls is not given here.
Legend:
[1] = biological target: T1, Taste receptor type 2 member 46 (Homo sapiens) (UniProt P59540); assay: Agonist activity at human TAS2R46 expressed in PMA-induced human BEAS2B cells assessed as antiinflammatory activity by measuring increase in IL-4 gene expression at 1 uM incubated for 18 hrs by qRT-PCR analysis; type: cell-based
T1 sequence (whole entry): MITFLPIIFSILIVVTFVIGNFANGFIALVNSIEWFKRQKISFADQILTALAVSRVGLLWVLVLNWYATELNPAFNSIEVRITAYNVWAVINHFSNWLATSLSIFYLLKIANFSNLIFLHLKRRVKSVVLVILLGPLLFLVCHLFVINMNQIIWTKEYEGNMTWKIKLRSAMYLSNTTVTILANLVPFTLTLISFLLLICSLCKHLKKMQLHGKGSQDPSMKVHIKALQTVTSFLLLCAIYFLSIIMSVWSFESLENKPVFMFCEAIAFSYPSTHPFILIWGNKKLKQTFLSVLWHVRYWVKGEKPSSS

[2] = biological target: T1, Taste receptor type 2 member 46 (Homo sapiens); assay: Agonist activity at human TAS2R46 expressed in human BEAS2B cells assessed as antiinflammatory activity by measuring reduction in PMA-induced iNOS protein level at 10 uM incubated for 18 hrs by TRITC-phalloidin/DAPI staining based analysis; type: cell-based
[3] = biological target: T1, Taste receptor type 2 member 46 (Homo sapiens); assay: Agonist activity at human TAS2R46 expressed in human BEAS2B cells assessed as increase in cytosolic calcium level at 1 mM in presence of 100 uM TAS2R46 antagonist 3HDC by Fluo-2-AM dye based fluorescence assay; type: functional, cell-based
[4] = biological target: T1, Taste receptor type 2 member 46 (Homo sapiens); assay: Agonist activity at human TAS2R46 expressed in human BEAS2B cells assessed as effect on cytosolic calcium level at microM concentration by Fluo-2-AM dye based fluorescence assay; type: functional, cell-based
[5] = biological target: T1, Taste receptor type 2 member 46 (Homo sapiens); assay: (§1) Agonist activity at human TAS2R46 expressed in human BEAS2B cells assessed as antioxidant activity by measuring reduction in PMA-induced superoxide anion generation at 1 uM preincubated for 1 hr followed by PMA addition and measured after 30 mins in presence of 1 uM TAS2R46 antagonist 3HDC by cytochrome C reduction assay; type: cell-based
[6] = biological target: T1, Taste receptor type 2 member 46 (Homo sapiens); assay: Agonist activity at human TAS2R46 expressed in PMA-induced human BEAS2B cells assessed as antiinflammatory activity by measuring increase in IL-4 gene expression at 10 uM incubated for 18 hrs by qRT-PCR analysis; type: cell-based
[7] = biological target: T1, Taste receptor type 2 member 46 (Homo sapiens); assay: as §1, with “at 10” for “at 1”; type: cell-based
[8] = biological target: T1, Taste receptor type 2 member 46 (Homo sapiens); assay: Agonist activity at human TAS2R46 expressed in PMA-induced human BEAS2B cells assessed as antiinflammatory activity by measuring increase in IL-10 gene expression at 10 uM incubated for 18 hrs by qRT-PCR analysis; type: cell-based
[9] = biological target: T1, Taste receptor type 2 member 46 (Homo sapiens); assay: Agonist activity at human TAS2R46 expressed in human BEAS2B cells assessed as antiinflammatory activity by measuring reduction in PMA-induced iNOS mRNA level at 10 uM incubated for 18 hrs by qRT-PCR analysis; type: cell-based
[10] = biological target: T1, Taste receptor type 2 member 46 (Homo sapiens); assay: Agonist activity at human TAS2R46 expressed in human BEAS2B cells assessed as antiinflammatory activity by measuring reduction in PMA-induced IL-1beta gene expression at 1 uM incubated for 18 hrs by qRT-PCR analysis; type: cell-based
[11] = tested on: BEAS-2B; assay: Effect on basal superoxide anion production in human BEAS2B cells expressing human TAS2R46 at 1 uM after 1 hr by cytochrome C reduction assay; type: ADME, cell-based
[12] = biological target: T1, Taste receptor type 2 member 46 (Homo sapiens); assay: Agonist activity at human TAS2R46 expressed in human BEAS2B cells assessed as increase in cytosolic calcium level at 1 mM by Fluo-2-AM dye based fluorescence assay; type: functional, cell-based
[13] = biological target: T1, Taste receptor type 2 member 46 (Homo sapiens); assay: Agonist activity at human TAS2R46 expressed in human BEAS2B cells assessed as antiinflammatory activity by measuring reduction in PMA-induced IL-1beta gene expression at 10 uM incubated for 18 hrs by qRT-PCR analysis; type: cell-based
[14] = biological target: T1, Taste receptor type 2 member 46 (Homo sapiens); assay: Agonist activity at human TAS2R46 expressed in human BEAS2B cells assessed as antiinflammatory activity by measuring reduction in PMA-induced MUC5AC gene expression at 1 to 10 uM incubated for 18 hrs by qRT-PCR analysis; type: cell-based
[15] = biological target: T1, Taste receptor type 2 member 46 (Homo sapiens); assay: Agonist activity at human TAS2R46 expressed in human BEAS2B cells assessed as antiinflammatory activity by measuring reduction in PMA-induced MUC5AC expression at 1 uM incubated for 18 hrs by TRITC-phalloidin/DAPI staining based analysis; type: cell-based
[16] = biological target: T1, Taste receptor type 2 member 46 (Homo sapiens); assay: Agonist activity at human TAS2R46 expressed in human BEAS2B cells assessed as antiinflammatory activity by measuring reduction in PMA-induced IL-1beta gene expression at 1 uM incubated for 18 hrs in presence of 1 uM TAS2R46 antagonist 3HDC by qRT-PCR analysis; type: cell-based
[17] = biological target: T1, Taste receptor type 2 member 46 (Homo sapiens); assay: Agonist activity at human TAS2R46 expressed in human BEAS2B cells assessed as antiinflammatory activity by measuring reduction in PMA-induced superoxide anion generation at 1 uM preincubated for 1 hr followed by PMA addition and measured after 30 mins by cytochrome C reduction assay; type: cell-based
[18] = biological target: T1, Taste receptor type 2 member 46 (Homo sapiens); assay: Agonist activity at human TAS2R46 expressed in human BEAS2B cells assessed as antiinflammatory activity by measuring reduction in PMA-induced IL-1beta gene expression at 10 uM incubated for 18 hrs in presence of 1 uM TAS2R46 antagonist 3HDC by qRT-PCR analysis; type: cell-based
[19] = biological target: T1, Taste receptor type 2 member 46 (Homo sapiens); assay: Agonist activity at human TAS2R46 expressed in PMA-induced human BEAS2B cells assessed as antiinflammatory activity by measuring increase in IL-10 gene expression at 1 uM incubated for 18 hrs by qRT-PCR analysis; type: cell-based
[20] = tested on: BEAS-2B; assay: Effect on basal superoxide anion production in human BEAS2B cells expressing human TAS2R46 at 10 uM after 1 hr by cytochrome C reduction assay; type: ADME, cell-based
[21] = biological target: T1, Taste receptor type 2 member 46 (Homo sapiens); assay: Agonist activity at human TAS2R46 expressed in human BEAS2B cells assessed as antioxidant activity by measuring reduction in PMA-induced superoxide anion generation at 10 uM preincubated for 1 hr followed by PMA addition and measured after 30 mins by cytochrome C reduction assay; type: cell-based
[22] = biological target: T1, Taste receptor type 2 member 46 (Homo sapiens); assay: Agonist activity at human TAS2R46 expressed in PMA-induced human BEAS2B cells assessed as antiinflammatory activity by measuring increase in IL-4 gene expression at 1 uM incubated for 18 hrs in presence of 1 uM TAS2R46 antagonist 3HDC by qRT-PCR analysis; type: cell-based
[23] = biological target: T1, Taste receptor type 2 member 46 (Homo sapiens); assay: Agonist activity at human TAS2R46 expressed in human BEAS2B cells assessed as increase in cytosolic calcium level at 1 mM in presence of […] antagonist 3HDC by Fluo-2-AM dye based fluorescence assay; type: functional, cell-based
[24] = biological target: T1, Taste receptor type 2 member 46 (Homo sapiens); assay: Agonist activity at human TAS2R46 expressed in human BEAS2B cells assessed as antiinflammatory activity by measuring reduction in PMA-induced iNOS protein level at 1 uM incubated for 18 hrs by TRITC-phalloidin/DAPI staining based analysis; type: cell-based
[25] = biological target: T1, Taste receptor type 2 member 46 (Homo sapiens); assay: Agonist activity at human TAS2R46 expressed in human BEAS2B cells assessed as antiinflammatory activity by measuring reduction in PMA-induced iNOS mRNA level at 1 uM incubated for 18 hrs by qRT-PCR analysis; type: cell-based
[26] = biological target: T1, Taste receptor type 2 member 46 (Homo sapiens); assay: Agonist activity at human TAS2R46 expressed in PMA-induced human BEAS2B cells assessed as antiinflammatory activity by measuring increase in IL-10 gene expression at 1 uM incubated for 18 hrs in presence of 1 uM TAS2R46 antagonist 3HDC by qRT-PCR analysis; type: cell-based

| Compound | Activity [1] | Activity [3] | Activity [5] | Activity [10] | Activity [11] | Activity [12] | Activity [15] | Activity [16] | Activity [17] | Activity [19] | Activity [23] | Activity [24] | Activity [25] | other results |
| --- | --- | --- | --- | --- | --- | --- | --- | --- | --- | --- | --- | --- | --- | --- |
| CC1=C[C@@H]2[C@H]3[C@H](C(C)=C4[C@H]5OC(=O)[C@@H](C)[C@@H]5CC[C@](C)(O)[C@@H]43)[C@@]13[C@@H]2[C@@](C)(O)CC[C@H]1[C@H](C)C(=O)O[C@@H]13 | inactive | inactive | inactive | Active | Non-Toxic | Active | Active | inactive | Active | inactive |  |  |  | Activity [2]: Active; Activity [4]: inactive; Activity [6]: inactive; Activity [7]: inactive; Activity [8]: inactive; Activity [9]: Active; Activity [13]: Active; Activity [14]: Active; Activity [18]: inactive; Activity [20]: Non-Toxic; Activity [21]: Active |
| COC(=O)[C@@H](C)C1=CC2=C(C)[C@H]3[C@H]([C@@H]4CC5(C)O[C@@]6(C)CC[C@H]7[C@H](C)C(=O)O[C@@H]7C35[C@@H]46)[C@H]2[C@@](C)(O)CC1 | Active |  | inactive | Active | Non-Toxic | Active | Active | Active | Active | Active | inactive | Active | Active | Activity [22]: inactive; Activity [26]: inactive |
| CC1=C2C=C([C@H](C)C(=O)OCCc3ccccc3)CC[C@](C)(O)[C@@H]2[C@H]2[C@@H]3CC4(C)O[C@@]5(C)CC[C@H]6[C@H](C)C(=O)O[C@@H]6C4([C@@H]35)[C@@H]12 | inactive | inactive | inactive | Active | Non-Toxic | Active | Active | Active | Active | inactive |  | Active | Active |  |
| CC1=C2C=C(C(C)NC(=O)N=[N+]=[N-])CC[C@](C)(O)[C@@H]2[C@H]2[C@@H]3CC4(C)O[C@@]5(C)CC[C@H]6[C@H](C)C(=O)O[C@@H]6C4([C@@H]35)[C@@H]12 (stereo not given in full) | inactive | Active | inactive | Active | Non-Toxic | Active | Active | Active | Active | inactive | Active | Active | inactive |  |
